According to patent publication US9144594B2, “Cathepsin L mediated diseases and associated methods and products” (University of Miami, priority 2005, dated 2015):

Experiments:
mice = experiment: Protein in urine after in vivo gene delivery of dynamin mutants into healthy mice (Bradford); parameters: species or system mouse
Description: Next, the level of urinary protein loss following gene delivery of dynamin mutants was examined (Table 2). […] The expression of K44A was associated with severe proteinuria (1.18 mg/ml) at peak gene expression time of 10 hours post injection. The reduction in gene expression was paralleled by a reduction in proteinuria (0.77 mg/ml). Gene transfer of dynR725A caused an increase in proteinuria (0.58 mg/ml). Although this was not a significant increase, it is probable that it is a consequence of the partial podocyte FP effacement seen after gene transfer of dynR725A, and due to increase in the stress fibers formation observed in cultured podocytes.
To explore whether functional dynamin is required for the maintenance of FP morphology in healthy kidneys, it was examined whether expression of dominant negative dynK44A disrupts podocyte function. […] In contrast, podocin driven expression of dynK44A, the dynamin mutant that cannot bind GTP, caused FP effacement (FIG. 21B) and proteinuria (1.1±0.26 mg/ml) at the peak of gene expression […] after gene delivery (FIGS. 21D and 25C). […] In other words, tight regulation of the life-time of the GTP-bound form of dynamin appears to be required for normal FP morphology and ultrafiltration.
CatL plasmids encoding short and long CatL (Goulet et al., Biol Chem 387, 1285-1293 (2004)), Dyn1 plasmids (pcDNA-driven) or p2.5 Podocin-driven (Moeller et al., Genesis 35, 39-42 (2003)) were introduced into mice (n>10, each construct) using the TransIT in vivo gene delivery system according to the manufacturer's instruction (Mirus Bio Corporation, Madison, Wis.). 10 and 24 h after gene delivery, proteinuria was assessed by Multistix 8 SG strips (Bayer Corporation, Elkhart, Ind.), and Bradford protein assay (Sigma, Saint Louis, Mo.). From the same urines the protein creatinine ratio was determined with Albuwell M and Creatinine Companion protein creatinine ELISA kits (Exocell Inc., Philadelphia, Pa.).

[1] = test system: LPS induced mouse proteinuria model; experiment: LPS induced mouse proteinuria model, protein in urine (prevention and reversal by dynamin gene delivery); assay type: in vivo
Description: Next, it was examined whether gene transfer of dynR725A and dynL356Q, G358V was able to protect from LPS induced changes of podocyte FP and thus proteinuria (FIGS. 6A-B); (Table 2B). […] Whereas the application of wildtype dynamin was unable to protect from LPS induced podocyte FP effacement (data not shown) and proteinuria (0.63 mg/ml after 24 hours, p<0.05 and 1.18 mg/ml after 48 hours, p<0.04); table 2B, the co-administration of R725A together with LPS completely abolished the development of proteinuria after 24 hours (0.20 mg/ml). Podocyte FPs remained normal at this timepoint (FIG. 6B). The decline of R725A expression in podocytes was then associated with the development of proteinuria (1.25 mg/ml, 48 h). At this time point, there was noticeable podocyte FP effacement. The application of the cathepsin L resistant dynamin mutant L356Q, G358V together with LPS conferred a partial protection from proteinuria (0.47 mg/ml, P<0.05). This protection was associated with normal appearing podocyte FP (FIG. 6C). Although this protection was not as strong as the one provided by dynR725A, it was prolonged and was still present even after the second dose of LPS ([…], P<0.04). This observation argues that lower expression levels of dynL356Q, G358V are required to protect from LPS induced FP effacement but the presence of dynR725A has the most powerful protection.
Another set of experiments was carried out to study whether dynR725A and dynL356Q, G358V are also useful once there is already established podocyte damage and proteinuria (reversal experiments), (FIGS. 6C, D); (Table 2C). First LPS was injected in mice at 0 and 24 hours and the course of urinary protein loss was documented. On the peak phase of proteinuria at 48 hours after the first LPS injection, either delivery solution (control), dynR725A or dynL356Q, G358V dynamin mutants were transferred and the morphology of podocyte FP was analyzed and the degree of proteinuria was determined 10 hours later when there was strong expression of the transferred gene in podocytes. […] A dramatic reformation of podocyte FPs was also observed (FIG. 6C). The same observation was true for L356Q, G358V (FIG. 6D) which was able to reduce proteinuria from 1.20 mg/ml to 0.71 mg/ml). From the in vitro data it was determined that R725A starts to self assemble into higher order structures in the LPS setting which render dynamin assembly domain protected from cathepsin L cleavage. […] In addition, dominant activating dynR725A proves useful because despite causing podocyte damage in wildtype mice, it can resist cathepsin L cleavage by self assembly in the LPS setting and have strong activity by impairment in its GTP hydrolysis.
If dynamin is a target of CatL, then dynL356Q and dynR725A, which are resistant to CatL cleavage, might protect kidneys from LPS. In control mice, two injections of LPS led to FP effacement (FIG. 21C) and a large increase in proteinuria (FIG. 21E, Con).
Next it was examined whether dynL356Q and dynR725A can reverse already established proteinuria. LPS was injected into mice at 0 and 24 hours. At the peak of proteinuria at 48 hours, mice were injected with dynWT, dynL356Q, or dynR725A, and the degree of proteinuria was analyzed 12 hours post injection. […] The rescue could be achieved with both podocin and CMV-driven protein expression.
All animal studies were approved by the MGH Subcommittee for Research Animal Care. C57BL6 mice were obtained from Jackson Laboratory (Bar Harbor, Me.). CatL−/− mice are in a pure C57BL6 background (Nakagawa et al., Science 280, 450-453 (1998)). LPS induced mouse proteinuria model was utilized as previously described (Reiser et al., J Clin Invest 113, 1390-1397 (2004)). Rat PAN nephrosis model was induced by a single intravenous injection of PAN (180 mg/kg body wt; Sigma-Aldrich, St. Louis, Mo.) (Kim et al., Am J Physiol Renal Physiol 286, F922-935 (2004)). […]

[2] = Table 2A, gene delivery into mice, t = 0

Molecule: dynWT: wild type dynamin overexpressed by adenovirus or delivered as dynamin 1 cDNA
- Protein in the urine (mice; [2]): 0.27 ± 0.06 mg/mL
- Protein in the urine (mice; Table 2A, gene delivery into mice, t = 10 h): 0.37 ± 0.08 mg/mL
- Protein in the urine (mice; Table 2A, gene delivery into mice, t = 24 h): 0.42 ± 0.12 mg/mL
- proteinuria after gene delivery, in words (mice; healthy mice): did not lead to increase of the protein in urine
- Protein in the urine ([1]; Table 2B Prevention, 2xLPS, t = 0): 0.28 ± 0.07 mg/mL
- Protein in the urine ([1]; Table 2B Prevention, 2xLPS, t = 10 h): 0.27 ± 0.07 mg/mL
- Protein in the urine ([1]; Table 2B Prevention, 2xLPS, t = 24 h, listed as Dyn WT): 0.63 ± 0.12 mg/mL
- Protein in the urine ([1]; Table 2B Prevention, 2xLPS, t = 24 h, listed as wildtype dynamin): 0.63 mg/mL
- Protein in the urine ([1]; Table 2B Prevention, 2xLPS, t = 48 h, listed as Dyn WT): 1.18 ± 0.23 mg/mL
- Protein in the urine ([1]; Table 2B Prevention, 2xLPS, t = 48 h, listed as wildtype dynamin): 1.18 mg/mL
- Protein in the urine ([1]; Table 2C Reversal, LPS at 0 and 24 h, t = 0): 0.30 ± 0.10 mg/mL
- Protein in the urine ([1]; Table 2C Reversal, t = 48 h, at gene transfer, listed as Dyn WT): 1.17 ± 0.18 mg/mL
- Protein in the urine ([1]; Table 2C Reversal, t = 48 h, at gene transfer, listed as wildtype dynamin): 1.26 mg/mL
- Protein in the urine ([1]; Table 2C Reversal, t = 58 h, 10 hours after gene transfer, listed as Dyn WT): 1.10 ± 0.17 mg/mL
- Protein in the urine ([1]; Table 2C Reversal, t = 58 h, 10 hours after gene transfer, listed as wildtype dynamin): 1.32 mg/mL
- protection from LPS-induced proteinuria, in words ([1]; gene delivery immediately before LPS injection): did not protect against these changes
- reversal of established proteinuria, in words ([1]; injected at 48 hours, analyzed 12 hours post injection): did not reduce proteinuria

B1: dynK44A: dominant-negative dynamin mutant that cannot bind GTP (protein, UniProt Q05193 1-864, looked up, variant K44A)
Dynamin-1: MGNRGMEDLIPLVNRLQDAFSAIGQNADLDLPQIAVVGGQSAGASSVLENFVGRDFLPRGSGIVTRRPLVLQLVNATTEYAEFLHCKGKKFTDFEEVRLEIEAETDRVTGTNKGISPVPINLRVYSPHVLNLTLVDLPGMTKVPVGDQPPDIEFQIRDMLMQFVTKENCLILAVSPANSDLANSDALKVAKEVDPQGQRTIGVITKLDLMDEGTDARDVLENKLLPLRRGYIGVVNRSQKDIDGKKDITAALAAERKFFLSHPSYRHLADRMGTPYLQKVLNQQLTNHIRDTLPGLRNKLQSQLLSIEKEVEEYKNFRPDDPARKTKALLQMVQQFAVDFEKRIEGSGDQIDTYELSGGARINRIFHERFPFELVKMEFDEKELRREISYAIKNIHGIRTGLFTPDMAFETIVKKQVKKIREPCLKCVDMVISELISTVRQCTKKLQQYPRLREEMERIVTTHIREREGRTKEQVMLLIDIELAYMNTNHEDFIGFANAQQRSNQMNKKKTSGNQDEILVIRKGWLTINNIGIMKGGSKEYWFVLTAENLSWYKDDEEKEKKYMLSVDNLKLRDVEKGFMSSKHIFALFNTEQRNVYKDYRQLELACETQEEVDSWKASFLRAGVYPERVGDKEKASETEENGSDSFMHSMDPQLERQVETIRNLVDSYMAIVNKTVRDLMPKTIMHLMINNTKEFIFSELLANLYSCGDQNTLMEESAEQAQRRDEMLRMYHALKEALSIIGDINTTTVSTPMPPPVDDSWLQVQSVPAGRRSPTSSPTPQRRAPAVPPARPGSRGPAPGPPPAGSALGGAPPVPSRPGASPDPFGPPPQVPSRPNRAPPGVPSRSGQASPSRPESPRPPFDL
- Protein in the urine (mice; [2]): 0.23 ± 0.11 mg/mL
- Protein in the urine (mice; Table 2A, gene delivery into mice, t = 10 h, listed as Dyn K44A): 1.18 ± 0.22 mg/mL
- Protein in the urine (mice; Table 2A, gene delivery into mice, t = 10 h, listed as K44A): 1.18 mg/mL
- Protein in the urine (mice; Table 2A, gene delivery into mice, t = 24 h, listed as Dyn K44A): 0.77 ± 0.11 mg/mL
- Protein in the urine (mice; Table 2A, gene delivery into mice, t = 24 h, listed as K44A): 0.77 mg/mL
- Protein in the urine (mice; Table 5 Basic Phenotype, podocin-driven vectors, t = 14 h): 1.1 ± 0.26 mg/mL
